Laboratory results: ChEMBL document CHEMBL2169792, “Synthesis of new 4-thiazolidinone-, pyrazoline-, and isatin-based conjugates with promising antitumor activity” (J Med Chem, 2012)
Active and inactive are the calls of the source. No cut-off for these calls is given here.

What was measured:
SNB-75 = test: Cytotoxicity against human SNB75 cells assessed as cell growth at 10 uM after 48 hrs by SRB assay; type: functional; conditions: SNB-75, 48 h, read-out: Activity
[1] = Cytotoxicity against human non-small cell lung cancer cells after 48 hrs by SRB assay; type: functional; conditions: Cancer cell lines; for CC50: read-out: LC50 (the source's name)
[2] = Cytotoxicity against human melanoma cells after 48 hrs by SRB assay; type: functional; conditions: Melanoma cell; for CC50: read-out: LC50 (the source's name)
[3] = Cytotoxicity against human breast cancer cells after 48 hrs by SRB assay; type: functional; conditions: Cancer cell lines
[4] = Cytotoxicity against human renal cancer cells after 48 hrs by SRB assay; type: functional; conditions: Cancer cell lines
[5] = Cytotoxicity against human colon cancer cells after 48 hrs by SRB assay; type: functional; conditions: Cancer cell lines
[6] = Cytotoxicity against human CNS cancer cells after 48 hrs by SRB assay; type: functional; conditions: Cancer cell lines
[7] = Cytotoxicity against human leukemia cells after 48 hrs by SRB assay; type: functional; conditions: Leukemia cell; for CC50: read-out: LC50 (the source's name)
HL-60(TB) = test: Cytotoxicity against human HL-60(TB) cells assessed as cell growth at 10 uM after 48 hrs by SRB assay; type: functional; conditions: HL-60, 48 h, read-out: Activity
[8] = Cytotoxicity against human ovarian cancer cells after 48 hrs by SRB assay; type: functional; conditions: Cancer cell lines
[9] = Cytotoxicity against human prostate cancer cells after 48 hrs by SRB assay; type: functional; conditions: Cancer cell lines
OVCAR-3 = test: Cytotoxicity against human OVCAR3 cells assessed as cell growth at 10 uM after 48 hrs by SRB assay; type: functional; conditions: OVCAR-3, 48 h, read-out: Activity
[10] = Toxicity in mouse; type: organism-based; conditions: in vivo
Mus musculus = test: Antitumor activity in ip dosed athymic nude mouse hollow fiber model assessed as reduction of viable cell mass; type: functional, organism-based
786-0 = test: Cytotoxicity against human 786-0 cells assessed as cell growth at 10 uM after 48 hrs by SRB assay; type: functional; conditions: 786-0, 48 h, read-out: Activity
OVCAR-4 = test: Cytotoxicity against human OVCAR4 cells assessed as cell growth at 10 uM after 48 hrs by SRB assay; type: functional; conditions: OVCAR-4, 48 h, read-out: Activity
MOLT-4 = test: Cytotoxicity against human MOLT4 cells assessed as cell growth at 10 uM after 48 hrs by SRB assay; type: functional; conditions: MOLT-4, 48 h, read-out: Activity

SMILES | GI50 [1] [µM] | TGI [1] [µM] | CC50 [1] [µM] | GI50 [2] [µM] | TGI [2] [µM] | CC50 [2] [µM] | GI50 [3] [µM] | LC50 (concentration causing 50% net cell kill) [3] [µM] | TGI [3] [µM] | GI50 [4] [µM] | LC50 [4] [µM] | TGI [4] [µM] | GI50 [5] [µM] | LC50 (concentration lethal to 50% of cells) [5] [µM] | TGI [5] [µM] | GI50 [6] [µM] | LC50 (concentration giving 50% net cell kill) [6] [µM] | TGI [6] [µM] | GI50 [7] [µM] | TGI [7] [µM] | other results
O=C(O)CN1C(=O)C(n2nc(-c3ccccc3)cc2-c2ccccc2O)c2ccccc21 (stereo not drawn) |  |  |  |  |  |  |  |  |  |  |  |  |  |  |  |  |  |  |  |  | growth at 10 µM (SNB-75): 108%
CN(C)c1ccc(-c2cc(-c3ccccc3)nn2C2C(=O)Nc3ccccc32)cc1 (stereo not drawn) | 16.2 | 56 | 90.9 | 19.6 | 54.5 | 91.2 | 20.8 | 90.1 | 73.4 | 17.4 | 86.2 | 57.3 | 16.1 | 79 | 39.7 | 21.2 | 95.1 | 68.7 | 16.3 | 74.6 | CC50 [7]: 100 µM; growth at 10 µM (HL-60(TB)): 70.9%; GI50 [8]: 18.9 µM; LC50 (concentration causing 50% net cell kill) [8]: 93.3 µM; TGI [8]: 67.2 µM; GI50 [9]: 16.1 µM; LC50 [9]: 100 µM; TGI [9]: 74 µM
COc1ccc(C2=NN(C3=NC(=O)/C(=C4\C(=O)Nc5ccccc54)S3)C(c3ccc(Cl)cc3)C2)cc1 (stereo not drawn) | 92.4 | 100 | 100 | 100 | 100 | 100 | 100 | 100 | 100 | 100 | 100 | 100 | 100 | 100 | 100 | 77.5 | 100 | 100 | 86.5 | 90.9 | growth at 10 µM (OVCAR-3): 77.5%; MTD [10]: > 400 mg/kg; CC50 [7]: 100 µM; Activity (Mus musculus): inactive; GI50 [8]: 100 µM; LC50 (concentration causing 50% net cell kill) [8]: 100 µM; TGI [8]: 100 µM; GI50 [9]: 100 µM; LC50 [9]: 100 µM; TGI [9]: 100 µM
O=C1Nc2ccc(Br)cc2C1n1nc(-c2ccccc2)cc1-c1ccc(Cl)cc1 (stereo not drawn) |  |  |  |  |  |  |  |  |  |  |  |  |  |  |  |  |  |  |  |  | growth at 10 µM (786-0): 90.1%
COc1ccc(-c2cc(-c3ccc4ccccc4c3)nn2C2C(=O)Nc3ccccc32)cc1 (stereo not drawn) |  |  |  |  |  |  |  |  |  |  |  |  |  |  |  |  |  |  |  |  | growth at 10 µM (OVCAR-4): 91.5%
O=C1Nc2ccc(Br)cc2C1n1nc(-c2ccc3ccccc3c2)cc1-c1ccc(Cl)cc1 (stereo not drawn) | 3.31 | 10 | 34.5 | 6.53 | 22.4 | 56.8 | 4.3 | 62.1 | 14.3 | 2.5 | 27.2 | 7.66 | 4.33 | 51.1 | 15 | 3.18 | 33.3 | 10.5 | 10.4 | 15.2 | growth at 10 µM (OVCAR-4): 58.5%; CC50 [7]: 79.2 µM; GI50 [8]: 3.09 µM; LC50 (concentration causing 50% net cell kill) [8]: 33.2 µM; TGI [8]: 9.85 µM; GI50 [9]: 2.57 µM; LC50 [9]: 34.4 µM; TGI [9]: 8.89 µM
COc1ccc(C2CC(c3ccccc3)=NN2C2=NC(=O)/C(=C3\C(=O)Nc4ccccc43)S2)cc1 (stereo not drawn) | 2.38 | 6.04 | 70.8 | 2 | 4.51 | 38 | 2.02 | 39 | 4.58 | 2.01 | 34.3 | 4.27 | 1.81 | 32 | 4.39 | 1.62 | 7.39 | 3.45 | 1.64 | 20.8 | growth at 10 µM (OVCAR-3): -51.4%; CC50 [7]: 93 µM; GI50 [8]: 2.3 µM; LC50 (concentration causing 50% net cell kill) [8]: 71.1 µM; TGI [8]: 19 µM; GI50 [9]: 1.52 µM; LC50 [9]: 7.37 µM; TGI [9]: 3.35 µM
COc1ccc(-c2cc(-c3ccc4ccccc4c3)nn2C2C(=O)Nc3ccc(Cl)cc32)cc1 (stereo not drawn) |  |  |  |  |  |  |  |  |  |  |  |  |  |  |  |  |  |  |  |  | growth at 10 µM (MOLT-4): 98.2%
